# Assay results taken from patent publication US20240245783A1, “METALLO-BETA-LACTAMASE INHIBITOR” (priority 2021, published 2024).
# Columns and labels:
# IMP-1-expressing E. coli = assay: Susceptibility of IMP-1-expressing E. coli to meropenem (Test Example 5); assay type: cell-based; conditions: compound at 25 μM; meropenem diluted from 2 μM; turbidity 655 nm after one day
# Protocol: Based on the description of NON PATENT LITERATURE 5, IMP-1-expressing E. coli was prepared.
# The effects of DTPA-cefalexin and NOTA-cefalexin on the susceptibility of IMP-1-expressing E. coli to a carbapenem antibacterial agent (meropenem) were evaluated by the following method. The IMP-1-expressing E. coli was cultured overnight with shaking in LB medium containing 100 μg/ml ampicillin. The bacterial solution was diluted to 1/200 with LB medium, used as a test bacterial solution, and then seeded in a 96-well plate. Meropenem (Wako Pure Chemical Industries, Ltd.) was added to the bacterial solution, thereby performing two-step dilution from a maximum of 2 μM. The bacteria were cultured in an incubator at 37° C. for one day, and the growth at that time was measured by turbidity (655 nm). FIGS. 8 and 9 depict the results.
# FIG. 8 depicts the susceptibility to meropenem when DTPA-cefalexin was added at 25 μM, or EDTA or DTPA was added at 25 μM. FIG. 9 depicts susceptibility to meropenem when NOTA-cefalexin was added at 25 μM. Those denoted as “control” in the figure show the results of adding only meropenem.
# [1] = test system: IMP-1-expressing Klebsiella pneumoniae; assay: Survival of Leukopenia mice infected with IMP-1-expressing Klebsiella pneumoniae (Test Example 6); assay type: in vivo; conditions: meropenem 10 mg/kg and compound 1 50 mg/kg subcutaneously 30 min after infection; 48 hours; Leukopenia ddY mice
# Protocol: DTPA-conjugated cefalexin (compound 1)'s effect of enhancing the drug susceptibility of pathogenic bacteria was examined by an in vivo experiment using bacteria-infected mice. To prepare a compromised Leukopenia mouse model, 0.1 mL of cyclophosphamide monohydrate (Sigma-Aldrich) prepared with PBS was administered intraperitoneally to 4-week-old male ddY mice (Japan SLC) at 250 mg/kg at 4 days before infection. IMP-1-expressing Klebsiella pneumoniae used herein was a clinical isolate provided by Kumamoto University Hospital. The bacteria were cultured overnight with shaking in LB medium at 37° C., then diluted 50-fold with LB medium, and further cultured with shaking, so that the turbidity (600 nm) was 1.5 or higher. The bacteria were centrifuged to remove the medium, washed twice with PBS, and then diluted with PBS to 5×10^5 CFU/mL. In the mouse infection experiment, each Leukopenia mouse was infected with 0.1 mL (5×10^4 CFU) of IMP-1-expressing Klebsiella pneumoniae by intraperitoneal injection. Thirty minutes after infection, 0.1 mL of a mixed solution containing meropenem (Wako Pure Chemical Industries, Ltd.) and compound 1 (DTPA-CEF) was subcutaneously administered to each mouse of a treatment mouse group at 10 mg/kg and 50 mg/kg, respectively. […] Forty-eight hours after infection, mice were assessed for viability. […]
# [2] = biological target: T1, recombinant metallo-β-lactamase (recombinant IMP-1) (Serratia marcescens, UniProt P52699); assay: Inhibition of meropenem degradation by recombinant IMP-1 (Test Example 1); assay type: biochemical; conditions: compound at 1, 5, and 10 μM; 100 μM meropenem; 1 hour at 37° C.; tandem mass spectrometry
# T1 construct: made in house; host or cells: E. coli BL21(DE3), vector pET29a
# Protocol: Based on the description of NON PATENT LITERATURE 5, a recombinant metallo-β-lactamase (recombinant IMP-1) was prepared. “NG_049172” of Database: RefSeq as the IMP-1 gene was incorporated into vector pET29a (Novagen), and then expressed in E. coli BL21(DE3) (Invitrogen).
# Recombinant IMP-1 was dissolved in a 50 mM sodium phosphate buffer (pH 7.6) at a concentration of 0.25 μg/ml. Furthermore, zinc chloride was added to the solution in such a manner that the concentration was 0.1 μM. The resultant in this state was subjected to preincubation at 37° C. for 10 minutes. […] After 1 hour of incubation at 37° C. residual meropenem was quantified by tandem mass spectrometry. Meropenem was quantified by a multiple reaction monitoring method. […]
# Reverse phase column: YMC-Triat C18 Plus column (2.1×50 mm); column temperature: 45° C.; mobile phase (2 liquids): mobile phase A (0.1% formic acid aqueous solution), mobile phase B (acetonitrile); gradient: increase from 1% B to 80% B for 10 minutes, keep it at 80% B for 0.5 minutes, and then return it to 1% B over 1 minute. […] Detection: multiple reaction monitoring, parent ion at 384.2, child ion at 68.1; measured in a positive ion mode.
# FIG. 4 depicts a graph showing the results of quantifying the peak area of meropenem detected in FIG. 3. The peak of meropenem alone is expressed as 100%.
# [3] = test system: E. coli clinical isolate expressing IMP-1; assay: Meropenem MIC against E. coli clinical isolate expressing IMP-1 (Test Example 10); assay type: cell-based
# Protocol: The enhancing effect of DTPA-ADCA on the susceptibility of E. coli clinical isolate expressing IMP-1 to a carbapenem antibacterial agent (meropenem) was evaluated by the following method. The E. coli clinical isolate was cultured overnight with shaking in LB medium. The bacterial solution was diluted to 1/1000 with LB medium, used as a test bacterial solution, and then seeded in a 96-well plate. Meropenem (Wako Pure Chemical Industries, Ltd.) was added to the bacterial solution, thereby performing two-step dilution from a maximum of 10 μg/ml. The bacteria were cultured in an incubator at 37° C. for one day, and growth at that time was measured by turbidity (655 nm). The meropenem concentration at which no bacterial growth had been observed was defined as the minimum inhibitory concentration.
# The effect of DTPA-ADCA on the susceptibility of an E. coli clinical isolate to meropenem was evaluated by the following method. The E. coli clinical isolate was cultured overnight with shaking in LB medium. The bacterial solution was diluted to 1/1000 with LB medium, used as the test bacterial solution, and then seeded in a 96-well plate. Meropenem (Wako Pure Chemical Industries, Ltd.) was added to this bacterial solution in the range of 0.1 μg/ml to 0.005 μg/ml. Here, DTPA or DTPA-ADCA was used in combination therewith at a concentration of […], and the effect on bacterial growth was examined. The bacteria were cultured in an incubator at 37° C. for one day, and the growth at that time was measured by turbidity (655 nm).
# FIG. 20 depicts the results. Multidrug-resistant E. coli was cultured with compounds having the indicated concentrations and the bacterial load was assessed by turbidity after 24 hours. […] Combined use of DTPA-ADCA (20 μM) reduced the minimum inhibitory concentration of meropenem to […] and enhanced the antibacterial activity by 100 times.
# [4] = combined use of DTPA-ADCA (20 μM)
# T1 sequence (P52699 19-246 limits assumed): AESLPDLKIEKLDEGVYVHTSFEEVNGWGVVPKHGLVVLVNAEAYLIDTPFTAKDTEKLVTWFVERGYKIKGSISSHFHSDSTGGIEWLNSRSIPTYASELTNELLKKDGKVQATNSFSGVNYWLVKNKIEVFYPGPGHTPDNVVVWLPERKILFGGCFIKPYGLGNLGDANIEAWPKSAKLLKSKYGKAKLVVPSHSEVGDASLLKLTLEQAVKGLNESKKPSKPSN
structure (smiles),measurement,setting,value
"CC1=C(C(=O)O)N2C(=O)[C@@H](NC(=O)[C@H](NC(=O)CN3CCN(CC(=O)O)CCN(CC(=O)O)CC3)c3ccccc3)[C@H]2SC1 [compound 7, NOTA-Conjugated Cefalexin]",effect on susceptibility of IMP-1-expressing E. coli to meropenem,IMP-1-expressing E. coli,metallo-β-lactamase-expressing bacteria are killed by the effect of the carbapenem antibacterial agent
"CC1=C(C(=O)O)N2C(=O)[C@@H](NC(=O)C(NC(=O)CN(CCN(CCN(CC(=O)O)CC(=O)O)CC(=O)O)CC(=O)O)c3ccccc3)[C@H]2SC1 (stereo partly shown) [compound 1, DTPA-conjugated cefalexin]",effect on susceptibility of IMP-1-expressing E. coli to meropenem,IMP-1-expressing E. coli,metallo-β-lactamase-expressing bacteria are killed by the effect of the carbapenem antibacterial agent
same,percent survival,[1],50%
same,inhibition of meropenem degradation by IMP-1 (residual meropenem),[2],inhibited the degradation of meropenem
"CC1=C(C(=O)O)N2C(=O)[C@@H](NC(=O)CN(CCN(CCN(CC(=O)O)CC(=O)O)CC(=O)O)CC(=O)O)[C@H]2SC1 [compound 6, DTPA-conjugated ADCA]",enhancement of the antibacterial activity of meropenem,[3]; [4],100 times
same,minimum inhibitory concentration of meropenem,[3]; [4],10 µg/mL
"O=C(O)CN(CCN(CC(=O)O)CC(=O)O)CCN(CC(=O)O)CC(=O)O [DTPA, reference compound]",effect on the minimum inhibitory concentration of meropenem,[3]; DTPA used in combination with meropenem,had no such effect
